Results published in US6482947B1, “Substituted (hetero) aryl compounds, process for their preparation, agents containing them and their use as safeners” (priority 1992, dated 2002).

Experiments:
[1] = system: Triticum aestivum (wheat); experiment: Safener action on wheat, post-emergence greenhouse test, visual damage assessment; format: in vivo; conditions: no safener, 4-leaf stage, assessment after 4 weeks
Description: (§1) Seeds of wheat and barley were placed in sandy loam soil in plastic pots, raised to the 3- to 4-leaf stage in a greenhouse and then treated successively with the compounds according to the invention and the herbicides using the post-emergence method. The herbicides and the compounds of the formula I were applied in the form of aqueous suspensions or emulsions at an application rate of 300 l/ha (converted). 3-4 weeks after the treatment, the plants were assessed visually for damage of any type caused by the herbicides applied, in particular the extent of lasting growth inhibition being taken into account. The assessment was made in percentages compared with untreated controls.
(§2) Test conditions: Application at the 4-leaf stage; assessment after 4 weeks; 4 replications

[2] = system: Triticum durum (hard wheat); experiment: Safener action on hard wheat, post-emergence greenhouse test, visual damage assessment; format: in vivo; conditions: no safener, 4-leaf stage, assessment after 4 weeks
Description: as §1, §2

Oryza sativa (rice) = experiment: Safener action on rice (flooded pots), damage assessment; format: in vivo; conditions: herbicide 300 g of a.i./ha, no safener; 3-leaf stage, assessment after 3 weeks
Description: Rice was sown in plastic pots and raised in a greenhouse under optimum growth conditions. After emergence, the pots were filled with water to 2 cm from the top, and this flooding level was maintained throughout the experiment. At the 3- to 4-leaf stage, the plants were then treated with the herbicides and the compounds of the formula I. 3 weeks after treatment, the plants were assessed for damage of any type caused by the herbicides, in particular the extent of lasting growth inhibition and thinning being considered.

Hordeum vulgare (barley) = experiment: Safener action on barley, post-emergence greenhouse test, visual damage assessment; conditions: no safener
Description: as §1, §2
Test conditions: Application at the 3-leaf stage;
assessment after 2-3 weeks; 4 replications

corn (Zea mays) [3] = experiment: Safener action on corn, post-emergence test, visual damage assessment; format: in vivo; conditions: no safener, 4-leaf stage, assessment after 4 weeks; for Damage [%] in corn varieties: Felix: variety Felix; for Damage [%] in corn varieties: Mutin: variety Mutin; for Damage [%] in corn varieties: Dea: variety Dea
From the text: Corn plants, weed and weed grasses were raised to the 4- to 5-leaf stage in plastic pots outside or in the greenhouse and treated successively with herbicides and compounds of the formula I according to the invention using the post-emergence method. […] The assessment was made in percent compared with untreated controls.

corn (Zea mays) [4] = experiment: as above; format: in vivo; conditions: herbicide 75 g of a.i./ha, no safener; 3-leaf stage, assessment after 3 weeks
[5] = system: Oryza sativa (transplanted); experiment: Safener action on transplanted rice, application by watering, visual damage assessment; format: in vivo; conditions: herbicide 450 g of a.i./ha, no safener, 3 days after transplanting, assessed 4 weeks after application
Description: Rice was sown in sandy soil in pots in a greenhouse and raised to a growth height of 24-25 cm. The rice was then transplanted into a water-covered soil and, 3 days after transplanting, treated with a herbicide or a herbicide/safener combination by watering. 4 weeks after application, plant damage was assessed visually compared with untreated controls (results see Table 9).

CCOC(=O)[C@@H](C)Oc1ccc(Oc2nc3ccc(Cl)cc3o2)cc1 [H1, fenoxaprop-P-ethyl]
Damage [%] TA ([1]; herbicide 100 g of a.i./ha): 10% | Damage [%] TA ([1]; herbicide 200 g of a.i./ha): 30% | Damage [%] TA ([1]; herbicide 400 g of a.i./ha): 40% | Damage [%] TD ([2]; herbicide 100 g of a.i./ha): 95% | Damage [%] TD ([2]; herbicide 200 g of a.i./ha): 95% | Damage [%] TD ([2]; herbicide 400 g of a.i./ha): 98% | Damage [%] ORSA (Oryza sativa (rice)): 80% | Damage [%] HV (Hordeum vulgare (barley); herbicide 100 g of a.i./ha, 4-leaf stage, assessment after 4 weeks): 80% | Damage [%] HV (Hordeum vulgare (barley); herbicide 200 g of a.i./ha, 3-leaf stage, assessment after 2-3 weeks): 85% | Damage [%] HV (Hordeum vulgare (barley); herbicide 200 g of a.i./ha, 4-leaf stage, assessment after 4 weeks): 90% | Damage [%] HV (Hordeum vulgare (barley); herbicide 400 g of a.i./ha, 4-leaf stage, assessment after 4 weeks): 98%

COC(=O)C(C)Oc1ccc(Oc2ccc(Cl)cc2Cl)cc1 (stereo not shown) [H2, diclofop-methyl]
Damage [%] HV (Hordeum vulgare (barley); herbicide 900 g of a.i./ha, 4-leaf stage, assessment after 4 weeks): 10% | Damage [%] HV (Hordeum vulgare (barley); herbicide 1800 g of a.i./ha, 4-leaf stage, assessment after 4 weeks): 40%

COC(=O)c1ccc(I)cc1S(=O)(=O)NC(=O)Nc1nc(C)nc(OC)n1.[Na] [H3, methyl 4-iodo-2-[3-(4-methoxy-6-methyl-1,3,5-triazin-2-yl)ureidosulfonyl]benzoate, sodium salt]
Damage [%] TA ([1]; herbicide 12 g of a.i./ha): 15% | Damage [%] TA ([1]; herbicide 25 g of a.i./ha): 80% | Damage [%] TA ([1]; herbicide 50 g of a.i./ha): 70%

COc1cc(OC)nc(Oc2cccnc2C(=O)OCc2ccccc2)n1 [H4, benzyl 3-(4,6-dimethoxypyrimidin-2-yloxy)pyridine-2-carboxylate]
Damage to corn [%] Alois variety (corn (Zea mays) [3]; herbicide 38 g of a.i./ha): 20% | Damage to corn [%] Felix variety (corn (Zea mays) [3]; herbicide 38 g of a.i./ha): 0% | Damage to corn [%] Alois variety (corn (Zea mays) [3]; herbicide 75 g of a.i./ha): 40% | Damage to corn [%] Felix variety (corn (Zea mays) [3]; herbicide 75 g of a.i./ha): 30% | Damage to corn [%] Alois variety (corn (Zea mays) [3]; herbicide 150 g of a.i./ha): 55% | Damage to corn [%] Felix variety (corn (Zea mays) [3]; herbicide 150 g of a.i./ha): 50% | Damage to corn [%] Alois variety (corn (Zea mays) [3]; herbicide 300 g of a.i./ha): 60% | Damage to corn [%] Felix variety (corn (Zea mays) [3]; herbicide 300 g of a.i./ha): 60%

COC(=O)c1sccc1NC(=O)Nc1nc(C)nc(OC)n1 [H7, 1-(2-methoxycarbonylthiophen-3-yl)-3-(4-methoxy-6-methyl-1,3,5-triazin-2-yl)urea]
Damage [%] in corn varieties: Felix (corn (Zea mays) [3]; herbicide 8 g a.i./ha): 0% | Damage [%] in corn varieties: Felix (corn (Zea mays) [3]; herbicide 15 g a.i./ha): 15% | Damage [%] in corn varieties: Felix (corn (Zea mays) [3]; herbicide 30 g a.i./ha): 40% | Damage [%] in corn varieties: Felix (corn (Zea mays) [3]; herbicide 60 g a.i./ha): 75% | Damage [%] in corn varieties: Mutin (corn (Zea mays) [3]; herbicide 8 g a.i./ha): 5% | Damage [%] in corn varieties: Mutin (corn (Zea mays) [3]; herbicide 15 g a.i./ha): 10% | Damage [%] in corn varieties: Mutin (corn (Zea mays) [3]; herbicide 30 g a.i./ha): 30% | Damage [%] in corn varieties: Mutin (corn (Zea mays) [3]; herbicide 60 g a.i./ha): 70%

COc1cc(OC)nc(NC(=O)NS(=O)(=O)c2ncccc2N(C)S(C)(=O)=O)n1 [H8, 3-(4,6-dimethoxypyrimidin-2-yl)-1-[3(-N-methyl-N-methylsulfonylamino)-2-pyridylsulfonyl]urea]
Damage [%] in corn varieties: Dea (corn (Zea mays) [3]; herbicide 25 g a.i./ha): 0% | Damage [%] in corn varieties: Dea (corn (Zea mays) [3]; herbicide 50 g a.i./ha): 0% | Damage [%] in corn varieties: Dea (corn (Zea mays) [3]; herbicide 100 g a.i./ha): 10% | Damage [%] in corn varieties: Dea (corn (Zea mays) [3]; herbicide 200 g a.i./ha): 35% | Damage [%] in corn varieties: Felix (corn (Zea mays) [3]; herbicide 25 g a.i./ha): 25% | Damage [%] in corn varieties: Felix (corn (Zea mays) [3]; herbicide 50 g a.i./ha): 55% | Damage [%] in corn varieties: Felix (corn (Zea mays) [3]; herbicide 100 g a.i./ha): 65% | Damage [%] in corn varieties: Felix (corn (Zea mays) [3]; herbicide 200 g a.i./ha): 70% | Damage [%] in corn varieties: Mutin (corn (Zea mays) [3]; herbicide 25 g a.i./ha): 15% | Damage [%] in corn varieties: Mutin (corn (Zea mays) [3]; herbicide 50 g a.i./ha): 30% | Damage [%] in corn varieties: Mutin (corn (Zea mays) [3]; herbicide 100 g a.i./ha): 60% | Damage [%] in corn varieties: Mutin (corn (Zea mays) [3]; herbicide 200 g a.i./ha): 65% | Damage in corn [%] Felix variety (corn (Zea mays) [4]): 75%

COP(=S)(OC)SCC(=O)N(c1ccc(Cl)cc1)C(C)C [H9, anilofos]
Damage [%] ORSA-T [5]: 50%
